Values of other authors, collected in patent US20110092535A1, “Novel Epilepsy Treatment” (priority 2006, published 2011).
Where two headings read alike, the source gives them in different places.

Tested on: maximal electric shock-induced seizures
Conditions: rats

Cc1nccn1CC1CCc2c(c3ccccc3n2C)C1=O (centres unmarked) [Ondansetron]
effect against maximal electric shock-induced seizures (higher doses (>2 mg/kg)): ineffective
effect against maximal electric shock-induced seizures (low doses): effective
